According to patent publication US11524942B2, “Metabolites of [3-(4-{2-butyl-1-[4-(4-chloro-phenoxy)-phenyl]-1H-imidazol-4 yl}-phenoxy)-propyl]-diethyl-amine” (vTv Therapeutics LLC, priority 2018, dated 2022):

Biological target: human sRAGE (the soluble extracellular domain of the human receptor for advanced glycation endproducts) (Homo sapiens (Human), UniProt Q15109)
Assay: Microscale thermophoresis binding affinity to recombinant human sRAGE
Conditions: 25° C., pH 7.5
Method: Around 5 nM sRAGE was subsequently added to compounds at concentrations from 600 nM to 20 pM and incubated for 5 minutes at 25° C. in buffer containing 25 mM Hepes (pH 7.5), 5 mM CaCl2), 5 mM MgCl2, 50 mM NaCl, 0.05% Tween20 and 1% DMSO before proceeding to microscale thermophoresis.
The raw thermophoresis data and average Kds were generated according to manufacturer's protocol using the Microscale Thermophoresis System analysis software.

human sRAGE (the soluble extracellular domain of the human receptor for advanced glycation endproducts), sequence (Q15109 23-342): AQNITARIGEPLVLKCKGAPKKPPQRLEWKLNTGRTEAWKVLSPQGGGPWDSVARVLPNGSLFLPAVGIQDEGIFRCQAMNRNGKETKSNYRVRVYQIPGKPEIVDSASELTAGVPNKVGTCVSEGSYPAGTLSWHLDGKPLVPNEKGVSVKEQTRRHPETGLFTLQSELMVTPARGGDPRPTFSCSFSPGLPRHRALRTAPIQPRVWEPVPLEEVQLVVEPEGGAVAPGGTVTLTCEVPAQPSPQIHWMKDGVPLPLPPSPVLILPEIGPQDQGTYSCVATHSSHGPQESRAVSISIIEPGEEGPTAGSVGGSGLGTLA

Row | Kd [µM] | SMILES
1 | 0.219 | CCCCc1nc(-c2ccc(OCCC(=O)O)cc2)cn1-c1ccc(Oc2ccc(Cl)cc2)cc1 [Metabolite M1, 3-(4-{2-Butyl-1-[4-(4-chloro-phenoxy)-phenyl]-1H-imidazol-4-yl}-phenoxy)-propionic acid]
2 | 0.257 | CCCCc1nc(-c2ccc(O)cc2)cn1-c1ccc(Oc2ccc(Cl)cc2)cc1 [Metabolite M3, 4-{2-butyl-1-[4-(4-chloro-phenoxy)-phenyl]-1H-imidazol-4-yl}-phenol]
3 | 0.0097 | CCCCc1nc(-c2ccc(OCCCN(CC)CC)cc2)cn1-c1ccc(Oc2ccc(Cl)cc2O)cc1 [Metabolite M5, 2-[4-[2-butyl-4-[4-[3-(diethylamino)propoxy]phenyl]imidazol-1-yl]phenoxy]-5-chloro-phenol]
4 | 0.0098 | CCCCc1nc(-c2ccc(OCCCN(CC)CC)cc2)cn1-c1ccc(Oc2ccc(Cl)c(O)c2)cc1 [Metabolite M6, 5-[4-[2-butyl-4-[4-[3-(diethylamino)propoxy]phenyl]imidazol-1-yl]phenoxy]-2-chloro-phenol]
5 | 0.0998 | CCCCc1nc(-c2ccc(OCCCO)cc2)cn1-c1ccc(Oc2ccc(Cl)cc2)cc1 [Metabolite M7, 3-(4-{2-Butyl-1-[4-(4-chloro-phenoxy)-phenyl]-1H-imidazol-4-yl}-phenoxy)-propan-1-ol]
